Assay results taken from PubChem BioAssay (NCI).
≈ marks a conversion by molar mass, not a printed value.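 Cells were grown in 96-well plates and exposed to each compound for 48 hours at five concentrations; endpoints were interpolated linearly between bracketing concentrations, or set to the highest concentration if not reached. The concentration for 50% growth inhibition is given as GI50. The concentration for full growth arrest is given as TGI.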

Assays:
Test in all cases: growth of human tumour cells (NCI), 48 h
[1] = test system: RXF 393 renal
[2] = test system: UACC-62 melanoma
[3] = test system: COLO 205 colon
[4] = test system: HS 578T breast
[5] = test system: SK-MEL-5 melanoma
[6] = test system: HCT-116 colon
[7] = test system: RPMI-8226 leukemia
[8] = test system: T-47D breast
[9] = test system: NCI/ADR-RES ovarian
[10] = test system: M14 melanoma
[11] = test system: SW-620 colon
[12] = test system: MDA-MB-435
[13] = test system: UO-31 renal
[14] = test system: MDA-N

| SMILES | TGI [1] | TGI [2] | TGI [3] | TGI [4] | TGI [5] | TGI [6] | TGI [7] | TGI [8] | TGI [9] | TGI [10] | TGI [11] | TGI [12] | TGI [13] | GI50 [1] | GI50 [3] | GI50 [7] | GI50 [11] | GI50 [13] | TGI [14] |
| --- | --- | --- | --- | --- | --- | --- | --- | --- | --- | --- | --- | --- | --- | --- | --- | --- | --- | --- | --- |
| C(/C=C(\Nc1ccccc1)c1ccc2ccccc2c1)=Nc1ccccc1 | 7.41 µM | 3.37 µM | 4.1 µM | 13.7 µM | 13.8 µM | 10 µM | 5.67 µM | 12.9 µM | 3.93 µM | 6.14 µM | 17.3 µM | 1.27 µM | 15.8 µM | – | – | – | – | – | – |
| COC(=O)CC(=O)OC1C[C@@H]2CCC3C(C)(C)CCC[C@]3(C)C23CC[C@@]1(C)C3 (some centres undefined) | 37.2 µM | 30.7 µM | 33.9 µM | – | 31.7 µM | 31.4 µM | > 100 µM | – | – | 33.7 µM | 32.1 µM | – | 39.8 µM | – | – | – | – | – | – |
| COc1cccc(NC(=O)/C(CS(=O)(=O)CCC(C(C)=O)C(C)=O)=N\NC(C)(C)C)c1 | > 100 µM | > 100 µM | > 100 µM | – | > 100 µM | > 100 µM | > 100 µM | – | – | > 100 µM | > 100 µM | – | > 100 µM | – | – | – | – | – | – |
| CCCC(O)c1ccc2[nH]c3c(C)cc([N+](=O)[O-])c(C)c3c2c1 (centres undefined) | – | – | > 100 µM | – | > 100 µM | > 100 µM | > 100 µM | – | – | > 100 µM | > 100 µM | – | > 100 µM | – | – | – | – | – | – |
| Cc1c2ccncc2c(C)c2c1[nH]c1ccc(O)cc12 | – | – | 0.455 µg/mL | – | – | – | 0.129 µg/mL | – | – | – | 3.94 µg/mL | – | 1.09 µg/mL | 0.102 µg/mL (≈ 0.387 µM) | 0.0699 µg/mL (≈ 0.267 µM) | 0.0217 µg/mL (≈ 0.0826 µM) | 0.0267 µg/mL (≈ 0.102 µM) | 0.073 µg/mL (≈ 0.278 µM) | – |
| C/C(=C\COP(=O)(O)OP(=O)(O)O)CC/C=C(\C)CNc1c(F)c(F)c(F)c(F)c1F | > 100 µM | > 100 µM | > 100 µM | > 100 µM | > 100 µM | > 100 µM | – | > 100 µM | > 100 µM | > 100 µM | > 100 µM | > 100 µM | > 100 µM | – | – | – | – | – | – |
| COC1=CC(=O)C2(C=C1OC)OC[C@H]1Oc3c(ccc4c3C=CC(C)(C)O4)C(=O)[C@H]12 (some centres undefined) | > 100 µM | > 100 µM | > 100 µM | – | – | > 100 µM | 49.3 µM | – | – | > 100 µM | > 100 µM | – | > 100 µM | – | – | – | – | – | – |
| O=C1CCNC/C1=C\c1ccccc1 | – | 34.3 µM | > 100 µM | – | 40.2 µM | 47.4 µM | 83.6 µM | – | – | 27.9 µM | 95.3 µM | – | 35.5 µM | – | – | – | – | – | – |
| Cc1ccccc1NC(=O)C(=O)C(C(=O)c1ccccc1F)C1OC(=O)c2ccccc21 (centres undefined) | 24.6 µM | – | 45.1 µM | – | 86.5 µM | 29.1 µM | 48.3 µM | – | – | 30.3 µM | > 100 µM | – | 49.4 µM | – | – | – | – | – | – |
| COC(=O)c1sc2c(c1C(=O)OC)C(=Nc1ccc(OC)cc1)SC2=Nc1ccc(OC)cc1 | 1.72 µM | 2.84 µM | 1.31 µM | – | 2.54 µM | 1.58 µM | – | – | 3.47 µM | 3 µM | 0.7 µM | 1.94 µM | 2.11 µM | – | – | – | – | – | 2.52 µM |
| O=S(c1ccc(O)cc1)c1ccc(O)cc1 | > 100 µM | > 100 µM | > 100 µM | – | > 100 µM | > 100 µM | > 100 µM | – | – | > 100 µM | > 100 µM | – | > 100 µM | – | – | – | – | – | – |
| CN(C)CCCn1c(-c2ccc(Br)cc2)csc1=Nc1ccccc1 | 29.8 µM | 29.6 µM | – | – | – | – | 44.4 µM | – | 35.7 µM | 32.9 µM | – | 61.5 µM | 30.2 µM | – | – | – | – | – | > 100 µM |
| CCCOC(=O)CCC(NC(=O)c1ccc(Nc2nc3ccccc3nc2-c2cccs2)cc1)C(=O)OCCC (centres undefined) | > 100 µM | > 100 µM | > 100 µM | – | > 100 µM | > 100 µM | > 100 µM | – | – | – | > 100 µM | – | > 100 µM | – | – | – | – | – | – |
| COc1ccc(N2C(=O)[C@@H]3[C@@H]4CC(C)CC[C@@H]4c4c([nH]c5ccccc45)[C@@H]3C2=O)cc1 (some centres undefined) | – | 40.8 µM | > 55.1 µM | – | > 100 µM | 20 µM | – | – | – | > 74.9 µM | 47.7 µM | – | > 55.9 µM | – | – | – | – | – | – |
| CC(=O)OC1CCC2(C)C(CCC3C2CCC2(C)C(c4ccc(=O)oc4)C(OC(C)=O)CC32O)C1 (centres undefined) | 0.0128 µM | 0.0506 µM | 0.162 µM | – | 0.0216 µM | 0.036 µM | 0.0595 µM | – | 0.0555 µM | – | 0.0593 µM | – | 0.0712 µM | – | – | – | – | – | – |
| CCOC(=O)CN(CC)C(=O)NC12CC3CC(CC(C3)C1)C2 | 509 µM | 312 µM | 270 µM | – | 211 µM | 522 µM | 454 µM | – | > 680 µM | – | > 750 µM | – | 389 µM | – | – | – | – | – | – |
| Cc1nc2nnc(CCCCCCCCc3nnc4nc(C)[nH]n34)n2[nH]1 | > 100 µM | – | > 100 µM | – | > 100 µM | > 100 µM | – | – | > 100 µM | > 100 µM | > 100 µM | > 100 µM | > 100 µM | – | – | – | – | – | > 100 µM |
